What all share (format): in vivo
The subject of one assay is Rice. The assay can be described thus: Inhibition of growth of rice. The following applies: pots placed in active compound solution; length determined after development of the third leaf. As for the experimental part:
Inhibition of growth of rice
(§1) Solvent: 30 parts by weight of dimethylformamide
(§2) Emulsifier: 1 part by weight of polyoxyethylene sorbitan monolaurate.
To prepare a suitable preparation of active compound, 1 part by weight of active compound is mixed with the stated amounts of solvent and emulsifier, and the mixture is made up to the desired concentration with water.
Rice is grown in climatic chambers in small pots containing vermiculite, until the first leaf reaches a size of 1-2 cm. At this stage, the pots are placed in the prepared active compound solutions to a height corresponding to half the height of the pot.
After the development of the third leaf, the length of all plants is determined, and expressed as a percentage of the length of the control plants. 100% means growth corresponding to that of the control plants, values below 100% mean inhibition of growth, and values above 100% mean promotion of growth.

The subject of a further assay is Barley plants. The assay can be described thus: Inhibition of growth of barley. The following applies: sprayed until dripping wet; measured after 3 weeks; compared with prior-art compounds (A), (B), (C) and (D). As for the experimental part: Inhibition of growth of barley
as §1, §2
(§3) To produce a suitable preparation of active compound, 1 part by weight of active compound is mixed with the stated amounts of solvent and emulsifier and the mixture is made up to the desired concentration with water.
Barley plants are grown in a greenhouse to the 2-leaf stage. In this stage, the plants are sprayed with the preparations of active compound until dripping wet. After 3 weeks, the additional growth is measured on all plants and the inhibition of growth in per cent of the additional growth of the control plants is calculated. 100% inhibition of growth means that growth has stopped and 0% denotes a growth corresponding to that of the control plants.

For a further assay, the system named is Cotton plants. The assay can be described thus: Inhibition of growth of cotton. The conditions noted are these: sprayed until dripping wet; measured after 3 weeks; compared with prior-art compound (A). As for the experimental part: Inhibition of growth of cotton
as §1
Emulsifier: 1 part by weight of […] sorbitan monolaurate.
as §3
Cotton plants are grown in a greenhouse until the 5th secondary leaf has unfolded completely. In this stage, the plants are sprayed with the preparations of active compound until dripping wet. After 3 weeks, the additional growth of the plants is measured and the inhibition of growth in per cent of the additional growth of the control plants is calculated. 100% inhibition of growth means that growth has stopped and 0% denotes a growth corresponding to that of the control plants.

Another assay has as its system Soya bean plants. The assay can be described thus: Inhibition of growth of soya beans. The conditions noted are these: sprayed until dripping wet; measured after 3 weeks; compared with prior-art compound (D). As for the experimental part:
Inhibition of growth of soya beans
as §1, §2, §3
Soya bean plants are grown in a greenhouse until the first secondary leaf has unfolded completely. In this stage, the plants are sprayed with the preparations of active compound until dripping wet. After 3 weeks, the additional growth is measured on all the plants and the inhibition of growth in per cent of the additional growth of the control plants is calculated. 100% inhibition of growth means that growth has stopped and 0% denotes a growth corresponding to that of the control plants.

In another assay the test system is Venturia inaequalis. The assay can be described thus: Venturia test (apple)/protective. The following applies: young apple plants sprayed, then inoculated; evaluation 12 days after inoculation; compared with comparative substance (c). As for the experimental part:
Venturia test (apple)/protective/ Solvent: 4.7 parts by weight of acetone Emulsifier: 0.3 parts by weight of alkylaryl polyglycol ether. To produce a suitable preparation of active compound, 1 part by weight of active compound is mixed with the stated amounts of solvent and emulsifier, and the concentrate is diluted with water to the desired concentration. To test for protective activity, young plants are sprayed with the preparation of active compound until dripping wet. After the spray coating has dried on, the plants are inoculated with an aqueous conidia suspension of the apple scab causative organism (Venturia inaequalis) and then remain in an incubation cabinet at 20° C. and 100% relative atmospheric humidity for 1 day. The plants are then placed in a greenhouse at 20° C. and a relative atmospheric humidity of about 70%. Evaluation is carried out 12 days after the inoculation.

In the case of `CCCCSC1(C(O)(Cn2cncn2)c2ccc(Cl)cc2)CC1` (stereo not shown) [Compound I-6], the “inhibition of growth of rice (length of plants as percentage of control plants)” value in the assay with Rice was “pronounced inhibition of growth”.
Consider `CC[S+]([O-])C1(C(O)(Cn2cncn2)c2ccc(Cl)cc2)CC1` (stereo not shown) [Compound I-3, 1-(4-chlorophenyl)-1-[1-(ethylsulphinyl)-1-cyclopropyl]-2-(1,2,4-triazol-yl)1-ethanol], for which the “inhibition of growth of barley (per cent of additional growth of control plants)” value in the assay on Barley plants was “more pronounced inhibition of growth than the compounds (A), (B), (C) and (D)”. In addition, the “inhibition of growth of cotton (per cent of additional growth of control plants)” value in the assay on Cotton plants is “more pronounced inhibition of growth than the compound (A)”. In addition, in the assay on Soya bean plants, the “inhibition of growth of soya beans (per cent of additional growth of control plants)” value is given as “more pronounced inhibition of growth than the compound (D)”. Also, the “inhibition of growth of rice (length of plants as percentage of control plants)” value in the assay with Rice is on record as “pronounced inhibition of growth”.
As to `OC(Cn1cncn1)(c1ccc(Cl)cc1)C1(Oc2ccccc2)CC1` (stereo not shown) [Compound I-5], the “inhibition of growth of barley (per cent of additional growth of control plants)” value in the assay on Barley plants was “more pronounced inhibition of growth than the compounds (A), (B), (C) and (D)”. Besides, the “inhibition of growth of cotton (per cent of additional growth of control plants)” value in the assay on Cotton plants is “more pronounced inhibition of growth than the compound (A)”. Further, in the assay with Rice, the “inhibition of growth of rice (length of plants as percentage of control plants)” value was “pronounced inhibition of growth”.
For the molecule `CCSC1(C(O)(Cn2cncn2)c2ccc(Cl)cc2)CC1` (stereo not shown) [Compound I-1, 1-(4-chlorophenyl)-1-[1-(ethylthio)-1-cyclopropyl]-2-(1,2,4-triazol-1-yl)1-ethanol], the “protective activity against apple scab (Venturia inaequalis)” value with Venturia inaequalis is on record as “better activity than the known comparative substance (c)”. The “inhibition of growth of rice (length of plants as percentage of control plants)” value in the assay with Rice is given as “pronounced inhibition of growth”.

Values taken from patent US4921528A, “Substituted azolylmethyl-cyclopropyl-carbinol derivatives” (Bayer Aktiengesellschaft, priority 1984, dated 1990).
